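Cells were grown in 96-well plates and exposed to each compound for 48 hours at five concentrations; endpoints were interpolated linearly between bracketing concentrations, or set to the highest concentration if not reached. Abbreviation: GI50, concentration required for 50% inhibition of growth. TGI marks complete inhibition of growth.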
What was measured:
Test in all cases: NCI-60 cell line screen, 48 h
786-0 renal = test system: 786-0 renal
A498 renal = test system: A498 renal
A549 NSCLC = test system: A549 NSCLC
ACHN renal = test system: ACHN renal
BT-549 breast = test system: BT-549 breast
CAKI-1 renal = test system: CAKI-1 renal
CCRF-CEM leukemia = test system: CCRF-CEM leukemia
COLO 205 colon = test system: COLO 205 colon
DU-145 prostate = test system: DU-145 prostate
EKVX NSCLC = test system: EKVX NSCLC
HCC-2998 colon = test system: HCC-2998 colon
HCT-116 colon = test system: HCT-116 colon
HCT-15 colon = test system: HCT-15 colon
HOP-62 NSCLC = test system: HOP-62 NSCLC
HOP-92 NSCLC = test system: HOP-92 NSCLC
HS 578T breast = test system: HS 578T breast
HT29 colon = test system: HT29 colon
IGROV1 ovarian = test system: IGROV1 ovarian
K-562 leukemia = test system: K-562 leukemia
KM12 colon = test system: KM12 colon
LOX IMVI melanoma = test system: LOX IMVI melanoma
M14 melanoma = test system: M14 melanoma
MALME-3M melanoma = test system: MALME-3M melanoma
MCF7 breast = test system: MCF7 breast
MDA-MB-231 breast = test system: MDA-MB-231 breast
MDA-MB-435 = test system: MDA-MB-435
MOLT-4 leukemia = test system: MOLT-4 leukemia
NCI-H226 lung = test system: NCI-H226 lung
NCI-H23 lung = test system: NCI-H23 lung
NCI-H460 lung = test system: NCI-H460 lung
NCI-H522 lung = test system: NCI-H522 lung
NCI/ADR-RES ovarian = test system: NCI/ADR-RES ovarian
OVCAR-3 ovarian = test system: OVCAR-3 ovarian
OVCAR-4 ovarian = test system: OVCAR-4 ovarian
OVCAR-5 ovarian = test system: OVCAR-5 ovarian
OVCAR-8 ovarian = test system: OVCAR-8 ovarian
PC-3 prostate = test system: PC-3 prostate
RPMI-8226 leukemia = test system: RPMI-8226 leukemia
RXF 393 renal = test system: RXF 393 renal
SF-268 CNS = test system: SF-268 CNS
SF-295 CNS = test system: SF-295 CNS
SF-539 CNS = test system: SF-539 CNS
SK-MEL-2 melanoma = test system: SK-MEL-2 melanoma
SK-MEL-28 melanoma = test system: SK-MEL-28 melanoma
SK-MEL-5 melanoma = test system: SK-MEL-5 melanoma
SK-OV-3 ovarian = test system: SK-OV-3 ovarian
SN12C renal = test system: SN12C renal
SNB-19 CNS = test system: SNB-19 CNS
SNB-75 CNS = test system: SNB-75 CNS
SW-620 colon = test system: SW-620 colon
T-47D breast = test system: T-47D breast
TK-10 renal = test system: TK-10 renal
U251 CNS = test system: U251 CNS
UACC-62 melanoma = test system: UACC-62 melanoma
UO-31 renal = test system: UO-31 renal

With CCCCc1ccc2nc(NC(=O)OC)[nH]c2c1 the GI50 (786-0 renal) was 61.3 nM, the TGI (786-0 renal) was 29300 nM and the GI50 (A498 renal) was 40 nM. The TGI (A498 renal) was 996 nM, the GI50 (A549 NSCLC) was 86.8 nM and the TGI (A549 NSCLC) was greater than 100000 nM. It also gave a GI50 (ACHN renal) of 77 nM, a TGI (ACHN renal) greater than 64400 nM and a GI50 (BT-549 breast) of 70.7 nM. For the same compound, the TGI (BT-549 breast) was 12400 nM, the GI50 (CAKI-1 renal) was 31.4 nM and the TGI (CAKI-1 renal) was 12900 nM. The GI50 (CCRF-CEM leukemia) was 34.2 nM, the GI50 (COLO 205 colon) was 38 nM and the TGI (COLO 205 colon) was 370 nM. The GI50 (DU-145 prostate) was 40.6 nM, the TGI (DU-145 prostate) was 278 nM and the GI50 (EKVX NSCLC) was 855 nM. It also gave a TGI (EKVX NSCLC) greater than 100000 nM, a GI50 (HCC-2998 colon) of 96.6 nM and a TGI (HCC-2998 colon) of 3400 nM. It also gave a GI50 (HCT-116 colon) of 48.2 nM, a TGI (HCT-116 colon) of 13500 nM and a GI50 (HCT-15 colon) of 43.4 nM. The TGI (HCT-15 colon) was greater than 95200 nM, the GI50 (HOP-62 NSCLC) was 126 nM and the TGI (HOP-62 NSCLC) was 26600 nM. The GI50 (HOP-92 NSCLC) was 697 nM, the TGI (HOP-92 NSCLC) was greater than 63000 nM and the GI50 (HS 578T breast) was 26.6 nM. For the same compound, the TGI (HS 578T breast) was 649 nM, the GI50 (HT29 colon) was 37.7 nM and the GI50 (IGROV1 ovarian) was 101 nM. For the same compound, the TGI (IGROV1 ovarian) was greater than 78700 nM, the GI50 (K-562 leukemia) was 33.7 nM and the TGI (K-562 leukemia) was greater than 100000 nM. It also gave a GI50 (KM12 colon) of 33.7 nM, a TGI (KM12 colon) of 1300 nM and a GI50 (LOX IMVI melanoma) of 78.9 nM. The TGI (LOX IMVI melanoma) was greater than 55900 nM, the GI50 (M14 melanoma) was 35.1 nM and the TGI (M14 melanoma) was 690 nM. It also gave a GI50 (MALME-3M melanoma) of 52.6 nM, a TGI (MALME-3M melanoma) of 23700 nM and a GI50 (MCF7 breast) of 34.3 nM. It also gave a TGI (MCF7 breast) greater than 52100 nM, a GI50 (MDA-MB-231 breast) of 291 nM and a TGI (MDA-MB-231 breast) greater than 74700 nM. For the same compound, the GI50 (MDA-MB-435) was 14.8 nM, the TGI (MDA-MB-435) was 37.9 nM and the GI50 (MOLT-4 leukemia) was 38.2 nM. It also gave a TGI (MOLT-4 leukemia) greater than 100000 nM, a GI50 (NCI-H226 lung) of 42.9 nM and a TGI (NCI-H226 lung) of 3320 nM. The GI50 (NCI-H23 lung) was 142 nM, the TGI (NCI-H23 lung) was greater than 100000 nM and the GI50 (NCI-H460 lung) was 37.8 nM. For the same compound, the TGI (NCI-H460 lung) was 6170 nM, the GI50 (NCI-H522 lung) was 61.2 nM and the TGI (NCI-H522 lung) was greater than 68300 nM. The GI50 (NCI/ADR-RES ovarian) was 31.1 nM, the TGI (NCI/ADR-RES ovarian) was 121 nM and the GI50 (OVCAR-3 ovarian) was 22.8 nM. It also gave a TGI (OVCAR-3 ovarian) of 50.2 nM, a GI50 (OVCAR-4 ovarian) of 1700 nM and a TGI (OVCAR-4 ovarian) greater than 69200 nM. For the same compound, the GI50 (OVCAR-5 ovarian) was 1400 nM, the TGI (OVCAR-5 ovarian) was greater than 100000 nM and the GI50 (OVCAR-8 ovarian) was 83.7 nM. The TGI (OVCAR-8 ovarian) was greater than 52900 nM, the GI50 (PC-3 prostate) was 41.3 nM and the TGI (PC-3 prostate) was greater than 82700 nM. For the same compound, the GI50 (RPMI-8226 leukemia) was 33.1 nM, the GI50 (RXF 393 renal) was 92.9 nM and the TGI (RXF 393 renal) was 20100 nM. The GI50 (SF-268 CNS) was 61.6 nM, the TGI (SF-268 CNS) was 16900 nM and the GI50 (SF-295 CNS) was 29.9 nM. The TGI (SF-295 CNS) was 475 nM, the GI50 (SF-539 CNS) was 36.6 nM and the TGI (SF-539 CNS) was 294 nM. It also gave a GI50 (SK-MEL-2 melanoma) of 789 nM, a TGI (SK-MEL-2 melanoma) greater than 62100 nM and a GI50 (SK-MEL-28 melanoma) of 87 nM. For the same compound, the TGI (SK-MEL-28 melanoma) was 35300 nM, the GI50 (SK-MEL-5 melanoma) was 35 nM and the TGI (SK-MEL-5 melanoma) was 2570 nM. It also gave a GI50 (SK-OV-3 ovarian) of 53.4 nM, a TGI (SK-OV-3 ovarian) greater than 47100 nM and a GI50 (SN12C renal) of 83.2 nM. The TGI (SN12C renal) was greater than 60400 nM, the GI50 (SNB-19 CNS) was 48.7 nM and the TGI (SNB-19 CNS) was greater than 100000 nM. For the same compound, the GI50 (SNB-75 CNS) was 25.7 nM, the TGI (SNB-75 CNS) was 1180 nM and the GI50 (SW-620 colon) was 32.5 nM. The TGI (SW-620 colon) was greater than 60500 nM, the GI50 (T-47D breast) was 39.2 nM and the TGI (T-47D breast) was greater than 100000 nM. The GI50 (TK-10 renal) was 325 nM, the TGI (TK-10 renal) was 29900 nM and the GI50 (U251 CNS) was 53.3 nM. It also gave a TGI (U251 CNS) of 19400 nM, a GI50 (UACC-62 melanoma) of 45.1 nM and a TGI (UACC-62 melanoma) greater than 59100 nM. It also gave a GI50 (UO-31 renal) of 12100 nM and a TGI (UO-31 renal) greater than 100000 nM.

From PubChem BioAssay (NCI)
